Like-named read-outs stand apart in the source and are kept apart here.
Test system: Methylmalonic Acidemia (MMA) primary fibroblasts Tsi 5224
Assay: Mitochondrial respiration, XFe96 Extracellular Flux Analyzer (OCR/ECAR), MMA fibroblasts Tsi 5224;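 as to Increase in Maximal Respiratory Capacity AUC: relative to vehicle DMSO control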
Format: cell-based
Settings: Homo sapiens, Fibroblast
Procedure, shortened: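 Primary fibroblasts (20000 cells/well) were held 24 h in supplemented DMEM before Seahorse OCR/ECAR profiling. Compounds at 10 to 50 μM or 0.1% DMSO were injected after baseline, then oligomycin 1 μg/ml, FCCP, and rotenone/antimycin A 0.5 μM. Values were normalized to Hoechst nuclear counts, baselined to pre-compound, and expressed relative to vehicle.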

[1] = MMA Tsi 5224, assay condition D (1 mM glucose, 10% FBS), read-out: Increase in Maximal Respiratory Capacity AUC
[2] = MMA Tsi 5224, assay condition D (1 mM glucose, 10% FBS), read-out: Increase in Spare Capacity AUC
[3] = MMA Tsi 5224, assay condition A (10 mM glucose, 2 mM L-glutamine, 1 mM pyruvate, 10% FBS), read-out: Increase in Maximal Respiratory Capacity AUC

SMILES | activation at 10 µM [1] [%] | activation at 10 µM [3] [%] | further results
COC(=O)CC[C@H](N)C(=O)SCCNC(=O)CCNC(=O)[C@H](O)C(C)(C)CO [Compound 411] | ≥ 10 | – | activation at 10 µM [2]: ≥ 10%
COC(=O)/C=C/C(=O)SCCNC(=O)CCNC(=O)[C@H](O)C(C)(C)COP(=O)(O)O [Compound 73, methyl (R,E)-4-((2-(3-(2-hydroxy-3,3-dimethyl-4-(phosphonooxy)butanamido)propanamido)ethyl)thio)-4-oxobut-2-enoate] | ≥ 10 | – | –
C/C=C/C(=O)SCCNC(=O)CCNC(=O)[C@H](O)C(C)(C)COP(=O)(O)O [Compound 82, (R)—S-(2-(3-(2-hydroxy-3,3-dimethyl-4-(phosphonooxy)butanamido)propanamido)ethyl) (E)-but-2-enethioate] | ≥ 10 | – | –
CC(C)C(=O)CC(=O)SCCNC(=O)CCNC(=O)[C@H](O)C(C)(C)CO [Compound 1239, (R)—S-(2-(3-(2,4-dihydroxy-3,3-dimethylbutanamido)propanamido)ethyl) 4-methyl-3-oxopentanethioate] | ≥ 10 | – | –
C[C@@H](O)CC(=O)CC(=O)SCCNC(=O)CCNC(=O)[C@H](O)C(C)(C)CO [Compound 42, (2R)-2,4-dihydroxy-N-[2-[(2-[[(5R)-5-hydroxy-3-oxohexanoyl]sulfanyl]ethyl)carbamoyl]ethyl]-3,3-dimethylbutanamide] | – | ≥ 10 | –
CC(C)(CO)[C@@H](O)C(=O)NCCC(=O)NCCSC(=O)CCC(=O)O [Compound 1, (R)-4-((2-(3-(2,4-dihydroxy-3,3-dimethylbutanamido)propanamido)ethyl)thio)-4-oxobutanoic acid] | – | ≥ 10 | activation at 10 µM (MMA Tsi 5224, assay condition B (1 mM glucose, 2 mM L-glutamine, 1 mM pyruvate, 10% FBS), read-out: Increase in Maximal Respiratory Capacity AUC): ≥ 10%
CC(C(=O)SCCNC(=O)CCNC(=O)[C@H](O)C(C)(C)CO)[C@@H](C)O (stereo partly drawn) [Compound 1244, (2R)-2,4-dihydroxy-N-{2-[(2-{[(3R)-3-hydroxy-2-methylbutanoyl]sulfanyl}ethyl)carbamoyl]ethyl}-3,3-dimethylbutanamide] | – | ≥ 10 | –
CCC(C)C(=O)CC(=O)SCCNC(=O)CCNC(=O)[C@H](O)C(C)(C)CO (stereo partly drawn) [Compound 1240, S-(2-(3-((R)-2,4-dihydroxy-3,3-dimethylbutanamido)propanamido)ethyl) 4-methyl-3-oxohexanethioate] | ≥ 10 | ≥ 10 | –
CC(=O)SCCNC(=O)CCNC(=O)[C@H](O)C(C)(C)COC(=O)CCC(=O)O [Compound 1242, (R)-12-hydroxy-13,13-dimethyl-2,7,11,16-tetraoxo-15-oxa-3-thia-6,10-diazanonadecan-19-oic acid] | ≥ 10 | – | –
CC(C)(CO)[C@@H](O)C(=O)NCCC(=O)NCCSC(=O)CC(O)C(=O)O (stereo partly drawn) [Compound 39] | – | ≥ 10 | –
COC(=O)CC(C(C)=O)C(=O)SCCNC(=O)CCNC(=O)[C@H](O)C(C)(C)CO (stereo partly drawn) [Compound 410] | ≥ 10 | – | –
CC1(CC(=O)SCCNC(=O)CCNC(=O)[C@H](O)C(C)(C)CO)OCCO1 [Compound 1252, (R)—S-(2-(3-(2,4-dihydroxy-3,3-dimethylbutanamido)propanamido)ethyl)-2-(2-methyl-1,3-dioxolan-2-yl)ethanethioate] | ≥ 10 | – | –
C[C@@H](O)CC(=O)SCCNC(=O)CCNC(=O)[C@H](O)C(C)(C)CO [Compound 38, S-2-{3-[(R)-2,4-dihydroxy-3,3-dimethylbutyrylamino]propionylamino} ethyl (R)-3-hydroxybutanethioate] | ≥ 10 | – | –
CC(O)CC(O)CC(=O)SCCNC(=O)CCNC(=O)[C@H](O)C(C)(C)CO (stereo partly drawn) [Compound 400] | ≥ 10 | – | –
CC(C)=CC(=O)SCCNC(=O)CCNC(=O)[C@H](O)C(C)(C)CO [Compound 37, S-2-{3-[(R)-2,4-dihydroxy-3,3-dimethylbutyrylamino]propionylamino}ethyl 3-methyl-2-butenethioate] | ≥ 10 | – | –
CC(C)(CO)[C@@H](OC(=O)CCC(=O)O)C(=O)NCCC(=O)NCCS [Compound 1311, (R)-4-((4-hydroxy-1-((3-((2-mercaptoethyl)amino)-3-oxopropyl)amino)-3,3-dimethyl-1-oxobutan-2-yl)oxy)-4-oxobutanoic acid] | ≥ 10 | ≥ 10 | –
C[C@H](CC(=O)SCCNC(=O)CCNC(=O)[C@H](O)C(C)(C)CO)OC(=O)CCC(=O)O [Compound 1243, 4-{[(2R)-4-[(2-{3-[(2R)-2,4-dihydroxy-3,3-dimethylbutanamido]propanamido}ethyl)sulfanyl]-4-oxobutan-2-yl]oxy}-4-oxobutanoic acid] | – | – | activation at 10 µM (MMA Tsi 5224, assay condition A (10 mM glucose, 2 mM L-glutamine, 1 mM pyruvate, 10% FBS), read-out: Increase in Spare Capacity AUC): ≥ 10%
COC(=O)CCC(=O)SCCNC(=O)CCNC(=O)[C@H](O)C(C)(C)CO [Compound 4, Methyl (R)-4-((2-(3-(2,4-dihydroxy-3,3-dimethylbutanamido)propanamido)ethyl)thio)-4-oxobutanoate] | ≥ 10 | ≥ 10 | activation at 10 µM [2]: ≥ 10%
CC(C)(CO)[C@@H](O)C(=O)NCCC(=O)NCCSC(=O)C1CCC(=O)N1 (stereo partly drawn) [Compound 1227, S-2-{3-[(R)-2,4-dihydroxy-3,3-dimethylbutyrylamino]propionylamino}ethyl 5-oxo-2-pyrrolidinecarbothioate] | ≥ 10 | – | activation at 10 µM [2]: ≥ 10%
CCC(=O)CC(=O)SCCNC(=O)CCNC(=O)[C@H](O)C(C)(C)CO [Compound 382, (2R)-2,4-dihydroxy-3,3-dimethyl-N-[2-([2-[(3-oxopentanoyl)sulfanyl]ethyl]carbamoyl)ethyl]butanamide] | – | ≥ 10 | –

Reference: patent US20230107216A1, “PANTETHEINE DERIVATIVES AND USES THEREOF” (Comet Therapeutics, Inc., priority 2018, published 2023)
